Data as given in patent publication US12497365B2, “4-pyridinyl formamide compound or derivative thereof, preparation method therefor, herbicidal composition and use thereof” (Qingdao Kingagroot Chemical Compound Co., Ltd., priority 2019, dated 2025).

Columns and labels:
Assay in all cases: Weeding effect in post-emergence stage
Format in all cases: in vivo
Settings in all cases: active ingredient 2000 g/ha, 3 weeks after application, fresh weight control rate
Abutilon theophrasti = test system: Abutilon theophrasti
Procedure, shortened: (§1)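 Greenhouse-grown weeds at the 2-3 leaf stage, about 2 weeks after sowing, were sprayed with compound at 2000-125 g/ha. The spray solution was made from acetone with Tween 80 and 1.5 L/ha methyl oleate concentrate as synergist. Fresh-weight growth control was scored 3 weeks after treatment.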

Descurainia sophia = test system: Descurainia sophia
Procedure, shortened: as §1

[1] = test system: Amaranthus retroflexus L.
Procedure, shortened: as §1

Chenopodium album = test system: Chenopodium album
Procedure, shortened: as §1

## Cn1nnnc1NC(=O)c1ccnc(-c2ccc(C#N)cc2F)c1Cl [Compound 1-78]
Abutilon theophrasti
  Weeding effect, activity level (growth control rate), Abutilon theophrasti: 5 (Level 5: growth control rate is above 85%)
Descurainia sophia
  Weeding effect, activity level (growth control rate), Descurainia sophia: 5 (Level 5: growth control rate is above 85%)
[1]
  Weeding effect, activity level (growth control rate), Amaranthus retroflexus L.: 5 (Level 5: growth control rate is above 85%)
Chenopodium album
  Weeding effect, activity level (growth control rate), Chenopodium album: 5 (Level 5: growth control rate is above 85%)

## Cn1nnnc1NC(=O)c1ccnc(-c2ccc(C#N)c(F)c2)c1Cl [Compound 1-79]
Abutilon theophrasti
  Weeding effect, activity level (growth control rate), Abutilon theophrasti: 5 (Level 5: growth control rate is above 85%)
Descurainia sophia
  Weeding effect, activity level (growth control rate), Descurainia sophia: 5 (Level 5: growth control rate is above 85%)
[1]
  Weeding effect, activity level (growth control rate), Amaranthus retroflexus L.: 5 (Level 5: growth control rate is above 85%)
Chenopodium album
  Weeding effect, activity level (growth control rate), Chenopodium album: 5 (Level 5: growth control rate is above 85%)

## Cn1nnnc1NC(=O)c1ccnc(-c2cccc(C#N)c2F)c1Cl [Compound 1-80]
Abutilon theophrasti
  Weeding effect, activity level (growth control rate), Abutilon theophrasti: 5 (Level 5: growth control rate is above 85%)
Descurainia sophia
  Weeding effect, activity level (growth control rate), Descurainia sophia: 5 (Level 5: growth control rate is above 85%)
[1]
  Weeding effect, activity level (growth control rate), Amaranthus retroflexus L.: 5 (Level 5: growth control rate is above 85%)
Chenopodium album
  Weeding effect, activity level (growth control rate), Chenopodium album: 5 (Level 5: growth control rate is above 85%)

## Cn1nnnc1NC(=O)c1ccnc(-c2cc(F)cc(C#N)c2)c1Cl [Compound 1-81]
Abutilon theophrasti
  Weeding effect, activity level (growth control rate), Abutilon theophrasti: 5 (Level 5: growth control rate is above 85%)
Descurainia sophia
  Weeding effect, activity level (growth control rate), Descurainia sophia: 5 (Level 5: growth control rate is above 85%)
[1]
  Weeding effect, activity level (growth control rate), Amaranthus retroflexus L.: 5 (Level 5: growth control rate is above 85%)
Chenopodium album
  Weeding effect, activity level (growth control rate), Chenopodium album: 5 (Level 5: growth control rate is above 85%)

## Cn1nnnc1NC(=O)c1ccnc(-c2cc(C#N)ccc2F)c1Cl [Compound 1-82]
Abutilon theophrasti
  Weeding effect, activity level (growth control rate), Abutilon theophrasti: 5 (Level 5: growth control rate is above 85%)
Descurainia sophia
  Weeding effect, activity level (growth control rate), Descurainia sophia: 5 (Level 5: growth control rate is above 85%)
[1]
  Weeding effect, activity level (growth control rate), Amaranthus retroflexus L.: 5 (Level 5: growth control rate is above 85%)
Chenopodium album
  Weeding effect, activity level (growth control rate), Chenopodium album: 5 (Level 5: growth control rate is above 85%)

## Cn1nnnc1NC(=O)c1ccnc(-c2ccc(F)cc2C#N)c1Cl [Compound 1-83]
Abutilon theophrasti
  Weeding effect, activity level (growth control rate), Abutilon theophrasti: 5 (Level 5: growth control rate is above 85%)
Descurainia sophia
  Weeding effect, activity level (growth control rate), Descurainia sophia: 5 (Level 5: growth control rate is above 85%)
[1]
  Weeding effect, activity level (growth control rate), Amaranthus retroflexus L.: 5 (Level 5: growth control rate is above 85%)
Chenopodium album
  Weeding effect, activity level (growth control rate), Chenopodium album: 5 (Level 5: growth control rate is above 85%)

## Cn1nnnc1NC(=O)c1ccnc(-c2ccc(F)c(C#N)c2)c1Cl [Compound 1-84]
Abutilon theophrasti
  Weeding effect, activity level (growth control rate), Abutilon theophrasti: 5 (Level 5: growth control rate is above 85%)
Descurainia sophia
  Weeding effect, activity level (growth control rate), Descurainia sophia: 5 (Level 5: growth control rate is above 85%)
[1]
  Weeding effect, activity level (growth control rate), Amaranthus retroflexus L.: 5 (Level 5: growth control rate is above 85%)
Chenopodium album
  Weeding effect, activity level (growth control rate), Chenopodium album: 5 (Level 5: growth control rate is above 85%)

## Cn1nnnc1NC(=O)c1ccnc(-c2ccc(F)c(C(F)(F)F)c2)c1Cl [Compound 1-85]
Abutilon theophrasti
  Weeding effect, activity level (growth control rate), Abutilon theophrasti: 5 (Level 5: growth control rate is above 85%)
Descurainia sophia
  Weeding effect, activity level (growth control rate), Descurainia sophia: 5 (Level 5: growth control rate is above 85%)
[1]
  Weeding effect, activity level (growth control rate), Amaranthus retroflexus L.: 5 (Level 5: growth control rate is above 85%)
Chenopodium album
  Weeding effect, activity level (growth control rate), Chenopodium album: 5 (Level 5: growth control rate is above 85%)

## Cn1nnnc1NC(=O)c1ccnc(-c2ccc(Cl)cc2Cl)c1Cl [Compound 1-86]
Abutilon theophrasti
  Weeding effect, activity level (growth control rate), Abutilon theophrasti: 5 (Level 5: growth control rate is above 85%)
Descurainia sophia
  Weeding effect, activity level (growth control rate), Descurainia sophia: 5 (Level 5: growth control rate is above 85%)
[1]
  Weeding effect, activity level (growth control rate), Amaranthus retroflexus L.: 5 (Level 5: growth control rate is above 85%)
Chenopodium album
  Weeding effect, activity level (growth control rate), Chenopodium album: 5 (Level 5: growth control rate is above 85%)

## Cn1nnnc1NC(=O)c1ccnc(-c2cccc(Cl)c2Cl)c1Cl [Compound 1-87]
Abutilon theophrasti
  Weeding effect, activity level (growth control rate), Abutilon theophrasti: 5 (Level 5: growth control rate is above 85%)
Descurainia sophia
  Weeding effect, activity level (growth control rate), Descurainia sophia: 5 (Level 5: growth control rate is above 85%)
[1]
  Weeding effect, activity level (growth control rate), Amaranthus retroflexus L.: 5 (Level 5: growth control rate is above 85%)
Chenopodium album
  Weeding effect, activity level (growth control rate), Chenopodium album: 5 (Level 5: growth control rate is above 85%)

## Cn1nnnc1NC(=O)c1ccnc(-c2ccc(Cl)c(Cl)c2)c1Cl [Compound 1-88]
Abutilon theophrasti
  Weeding effect, activity level (growth control rate), Abutilon theophrasti: 5 (Level 5: growth control rate is above 85%)
Descurainia sophia
  Weeding effect, activity level (growth control rate), Descurainia sophia: 5 (Level 5: growth control rate is above 85%)
[1]
  Weeding effect, activity level (growth control rate), Amaranthus retroflexus L.: 5 (Level 5: growth control rate is above 85%)
Chenopodium album
  Weeding effect, activity level (growth control rate), Chenopodium album: 5 (Level 5: growth control rate is above 85%)

## Cn1nnnc1NC(=O)c1ccnc(-c2cc(Cl)cc(Cl)c2)c1Cl [Compound 1-89]
Abutilon theophrasti
  Weeding effect, activity level (growth control rate), Abutilon theophrasti: 5 (Level 5: growth control rate is above 85%)
Descurainia sophia
  Weeding effect, activity level (growth control rate), Descurainia sophia: 5 (Level 5: growth control rate is above 85%)
[1]
  Weeding effect, activity level (growth control rate), Amaranthus retroflexus L.: 5 (Level 5: growth control rate is above 85%)
Chenopodium album
  Weeding effect, activity level (growth control rate), Chenopodium album: 5 (Level 5: growth control rate is above 85%)

## Cn1nnnc1NC(=O)c1ccnc(-c2cc(F)cc(Cl)c2)c1Cl [Compound 1-90]
Abutilon theophrasti
  Weeding effect, activity level (growth control rate), Abutilon theophrasti: 5 (Level 5: growth control rate is above 85%)
Descurainia sophia
  Weeding effect, activity level (growth control rate), Descurainia sophia: 5 (Level 5: growth control rate is above 85%)
[1]
  Weeding effect, activity level (growth control rate), Amaranthus retroflexus L.: 5 (Level 5: growth control rate is above 85%)
Chenopodium album
  Weeding effect, activity level (growth control rate), Chenopodium album: 5 (Level 5: growth control rate is above 85%)

## Cn1nnnc1NC(=O)c1ccnc(-c2ccc(Cl)c(F)c2)c1Cl [Compound 1-91]
Abutilon theophrasti
  Weeding effect, activity level (growth control rate), Abutilon theophrasti: 5 (Level 5: growth control rate is above 85%)
Descurainia sophia
  Weeding effect, activity level (growth control rate), Descurainia sophia: 5 (Level 5: growth control rate is above 85%)
[1]
  Weeding effect, activity level (growth control rate), Amaranthus retroflexus L.: 5 (Level 5: growth control rate is above 85%)
Chenopodium album
  Weeding effect, activity level (growth control rate), Chenopodium album: 5 (Level 5: growth control rate is above 85%)

## Cn1nnnc1NC(=O)c1ccnc(-c2ccc(F)c(Cl)c2)c1Cl [Compound 1-92]
Abutilon theophrasti
  Weeding effect, activity level (growth control rate), Abutilon theophrasti: 5 (Level 5: growth control rate is above 85%)
Descurainia sophia
  Weeding effect, activity level (growth control rate), Descurainia sophia: 5 (Level 5: growth control rate is above 85%)
[1]
  Weeding effect, activity level (growth control rate), Amaranthus retroflexus L.: 5 (Level 5: growth control rate is above 85%)
Chenopodium album
  Weeding effect, activity level (growth control rate), Chenopodium album: 5 (Level 5: growth control rate is above 85%)

## Cn1nnnc1NC(=O)c1ccnc(-c2cccc(Cl)c2F)c1Cl [Compound 1-93]
Abutilon theophrasti
  Weeding effect, activity level (growth control rate), Abutilon theophrasti: 5 (Level 5: growth control rate is above 85%)
Descurainia sophia
  Weeding effect, activity level (growth control rate), Descurainia sophia: 5 (Level 5: growth control rate is above 85%)
[1]
  Weeding effect, activity level (growth control rate), Amaranthus retroflexus L.: 5 (Level 5: growth control rate is above 85%)
Chenopodium album
  Weeding effect, activity level (growth control rate), Chenopodium album: 5 (Level 5: growth control rate is above 85%)

## Cn1nnnc1NC(=O)c1ccnc(-c2ccc(F)cc2Cl)c1Cl [Compound 1-94]
Abutilon theophrasti
  Weeding effect, activity level (growth control rate), Abutilon theophrasti: 5 (Level 5: growth control rate is above 85%)
Descurainia sophia
  Weeding effect, activity level (growth control rate), Descurainia sophia: 5 (Level 5: growth control rate is above 85%)
[1]
  Weeding effect, activity level (growth control rate), Amaranthus retroflexus L.: 5 (Level 5: growth control rate is above 85%)
Chenopodium album
  Weeding effect, activity level (growth control rate), Chenopodium album: 5 (Level 5: growth control rate is above 85%)

## Cn1nnnc1NC(=O)c1ccnc(-c2ccc(Cl)cc2F)c1Cl [Compound 1-95]
Abutilon theophrasti
  Weeding effect, activity level (growth control rate), Abutilon theophrasti: 5 (Level 5: growth control rate is above 85%)
Descurainia sophia
  Weeding effect, activity level (growth control rate), Descurainia sophia: 5 (Level 5: growth control rate is above 85%)
[1]
  Weeding effect, activity level (growth control rate), Amaranthus retroflexus L.: 5 (Level 5: growth control rate is above 85%)
Chenopodium album
  Weeding effect, activity level (growth control rate), Chenopodium album: 5 (Level 5: growth control rate is above 85%)

## Cn1nnnc1NC(=O)c1ccnc(-c2cc(Br)ccc2Br)c1Cl [Compound 1-96]
Abutilon theophrasti
  Weeding effect, activity level (growth control rate), Abutilon theophrasti: 5 (Level 5: growth control rate is above 85%)
Descurainia sophia
  Weeding effect, activity level (growth control rate), Descurainia sophia: 5 (Level 5: growth control rate is above 85%)
[1]
  Weeding effect, activity level (growth control rate), Amaranthus retroflexus L.: 5 (Level 5: growth control rate is above 85%)
Chenopodium album
  Weeding effect, activity level (growth control rate), Chenopodium album: 5 (Level 5: growth control rate is above 85%)
